{"source": "patent US20120283096A1", "about": "“AGENT FOR IMPROVING PLANT GROWTH, SEEDS, AND METHOD FOR IMPROVING PLANT GROWTH” (Incorporated Administrative Agency National Agricu lture …, priority 2010, published 2012)", "format_in_all_cases": "in vivo", "key": {"paddy rice [1]": {"system": "paddy rice", "experiment": "Seedling establishment of coated paddy seeds in submerged soil containers (Examples 4-1 to 4-4b, FIGS. 11, 14-19c)", "details": "germinated seeds, 30° C.", "protocol": "The germinated paddy seeds were soaked for one minute in a tenfold diluted solution of a commercially available laundry starch (manufactured by Rocket Soap Co., Ltd.; My Laundry Starch) containing approximately a little less than 10% by weight of polyvinyl alcohol, centrifuged at 1000 rpm for removal of the extra solution, and, immediately after that, lightly covered with different amounts of ammonium molybdophosphate, whereby seeds with different amounts of ammonium molybdophosphate were prepared.\n(§1) It should also be noted that in each of FIGS. 14 through 15b, the horizontal axis represents the number of moles (mmol) of molybdenum or tungsten that adhered per gram of dry seed. In each of FIGS. 14 through 15b, the dots correspond to the numbers of moles of 0, 0.02, 0.05, 0.1, 0.2, 0.5, 1, and 2 mmol, starting from the left.\nas §1, with “should” for “should also”, “16” for “14”, “18,” for “15b,”, “molybdenum” for “molybdenum or tungsten”\nIt should be noted that in FIG. 19a, the horizontal axis represents the number of moles (mmol) of molybdenum that adhered per gram of dry seed. In FIG. 19a, the dots correspond to the numbers of moles of 0, 0.02, 0.05, 0.1, 0.2, 0.5, 1, and 2 mmol, starting from the left.\nThe resulting seeds were allowed to spend time in a sufficiently wet condition so that the iron rusted, and then allowed to further spend overnight. […] Six containers were allotted for each condition, and the proportion of seedling establishment and the standard error were examined. It should be noted that in FIG. 19b, the horizontal axis represents the number of moles (mmol) of molybdenum that adhered per gram of dry seed. In FIG. 19b, the dots correspond to the numbers of moles of 0, 0.02, 0.05, 0.1, 0.2, 0.5, 1, and 2 mmol, starting from the left.\nSix containers were allotted for each condition, and the proportion of seedling establishment and the standard error were examined. It should be noted that in FIG. 19c, the horizontal axis represents the actual weight ratios of 25 wt % calcium peroxide that adhered with respect to the weight of dry seed. In FIG. 19c, the dots correspond to the actual weight ratios of 25 wt % calcium peroxide of 0, 0.01, 0.02, 0.05, 0.1, 0.2, 0.5, and 1 time, starting from the left."}, "paddy rice [2]": {"system": "paddy rice", "experiment": "Seedling establishment of coated paddy seeds planted in a paddy field (Example 4-5, FIG. 22)", "details": "dry seeds coated with clay plus 0.1 mmol/g molybdenum; kept submerged, about one month after seeding; versus WITHOUT MATERIAL and oxygen generating agent (Cal); trihydrate", "protocol": "Dry paddy seeds (branded as Hinohikari) were prepared.\nSeparately, dry seeds (WITHOUT MATERIAL) coated solely with clay containing no molybdenum were also prepared. Furthermore, dry seeds (Cal) coated with an oxygen generating agent (Calper Powder 16, Hodogaya UPL Co., Ltd.) the same weight per dry seeds were also prepared. Calper Powder 16 is an oxygen generating agent composed mainly of calcium peroxide.\nThese dry seeds were planted in puddled soil in a paddy field in Chikugo City, Fukuoka Prefecture, by using a simultaneous puddling and planting point sowing machine. By preparing the seeds as described above and planting them by using a point sowing machine, the amount of seeding per unit area of the paddy field can be substantially uniformed. It should be noted that prior to soil puddling, 4 g/m^2 of ammonium sulfate as nitrogen and potassium sulfate containing potassium equivalent to 8 g/m^2 as potassium oxide had been applied to the paddy field. After seeding, the seeds were kept submerged without draining the water."}, "soybean": {"system": "soybean", "experiment": "Seedling establishment of soybean seeds submerged for two days (Example 6a-1, FIG. 20e)", "details": "0.01 mmol to 0.5 mmol molybdenum per gram of dry seed, 25° C., versus untreated seeds", "protocol": "Soil was prepared in the same manner as in Example 6-1. Next, soybean seeds (branded as Fukuyutaka) not subjected to treatment such as soaking in advance were soaked for one minute in a tenfold diluted solution of a commercially available laundry starch (manufactured by Rocket Soap Co., Ltd.; My Laundry Starch) containing approximately a little less than 10% by weight of polyvinyl alcohol. Then, the seeds were spin-dried for thirty seconds in a commercially available washing machine for removal of the extra water. […] These seeds were buried so that the upper edge of each seed was at the same height as the soil surface. In an artificially-lit (amount of light 0.4 mmol/m^2/s, lit for twelve hours per day) room at 25° C., water was added immediately after seeding so that the surface water was 15 mm high. After two days, the surface water was sucked up with a pipette for removal. Six containers were allotted for each condition, and the proportion of seedling establishment (proportion of individual plants that survived) was measured two weeks after seeding. It should be noted that in FIG. 20e, the horizontal axis represents the number of moles (mmol) of molybdenum that adhered per gram of dry seed. In FIG. 20e, the dots correspond to the numbers of moles of 0 (UNTREATED), 0.01, 0.02, 0.05, 0.1, 0.2, and 0.5 mmol, starting from the left. […]"}}, "note": "Entries after “also recorded” stand apart in the source; their conditions may differ.", "data": [{"substance": "Triammonium 12-moblydo(VI)phosphate trihydrate [Ammonium molybdophosphate]", "values": [{"measurement": "molybdenum or tungsten amount leading to improvements in proportion of seedling establishment", "setting": "paddy rice [1]; polyvinyl alcohol adhesive, compared with 0 mmol/g", "value": "≥ 0.02 mmol per gram of dry seeds"}, {"measurement": "proportion of seedling establishment", "setting": "paddy rice [1]; molybdenum amount of 0.5 mmol/g or more, FIG. 11", "value": "~80", "unit": "%"}, {"measurement": "seedling establishment", "setting": "paddy rice [2]", "value": "obvious improvements in seedling establishment; also recorded: most remarkable improving effect on seedling establishment"}, {"measurement": "proportion of seedling establishment", "setting": "soybean", "value": "improvements in proportion of seedling establishment"}]}]}
